Data from publication PMC12951562, “SH2scan: Mapping SH2 Domain-Ligand Binding Selectivity for Inhibitors and Degraders” (Journal of Medicinal Chemistry, 2026).
Several values for one entry are separate records, joined by “and”; a condition that tells them apart may be missing. Identical values can stand only once. Like-named read-outs stand apart in the source and are kept apart here.

Tests used:
Experiment in all cases: biochemical
Type in all cases: binding
YES = biological target: T1, YES (Homo sapiens, UniProt P07947); conditions: for remaining activity at 10 µM: read-out: percent of DMSO vehicle control
T1 construct: the DNA-tagged SH2 domain concentrations used in this study were <0.1 nM; made in house; host or cells: HEK293 (transient transfection; unpurified cell extract)
T1 sequence (P07947 158-255 limits assumed): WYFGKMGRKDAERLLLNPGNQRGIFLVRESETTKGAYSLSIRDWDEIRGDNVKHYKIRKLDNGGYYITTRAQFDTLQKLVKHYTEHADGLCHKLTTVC

SLAP2 = biological target: T2, SLAP2 (Homo sapiens, UniProt Q9H6Q3); conditions: read-out: percent of DMSO vehicle control
T2 construct: made in house; host or cells: HEK293 (transient transfection), unpurified extract
T2 sequence (Q9H6Q3 1-261): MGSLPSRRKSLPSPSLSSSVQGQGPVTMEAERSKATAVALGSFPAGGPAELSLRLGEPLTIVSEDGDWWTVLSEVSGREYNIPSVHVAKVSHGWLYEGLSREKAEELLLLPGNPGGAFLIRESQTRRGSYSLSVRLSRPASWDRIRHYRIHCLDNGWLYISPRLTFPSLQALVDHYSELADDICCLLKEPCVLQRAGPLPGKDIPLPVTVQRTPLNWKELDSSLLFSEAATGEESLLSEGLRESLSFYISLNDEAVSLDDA

SRMS = biological target: T3, SRMS (Homo sapiens, UniProt Q9H3Y6); conditions: for remaining activity at 10 µM: read-out: percent of DMSO vehicle control; for KD: dose-response
T3 construct: made in house; host or cells: HEK293 (transient transfection), unpurified extract
T3 sequence (Q9H3Y6 whole entry): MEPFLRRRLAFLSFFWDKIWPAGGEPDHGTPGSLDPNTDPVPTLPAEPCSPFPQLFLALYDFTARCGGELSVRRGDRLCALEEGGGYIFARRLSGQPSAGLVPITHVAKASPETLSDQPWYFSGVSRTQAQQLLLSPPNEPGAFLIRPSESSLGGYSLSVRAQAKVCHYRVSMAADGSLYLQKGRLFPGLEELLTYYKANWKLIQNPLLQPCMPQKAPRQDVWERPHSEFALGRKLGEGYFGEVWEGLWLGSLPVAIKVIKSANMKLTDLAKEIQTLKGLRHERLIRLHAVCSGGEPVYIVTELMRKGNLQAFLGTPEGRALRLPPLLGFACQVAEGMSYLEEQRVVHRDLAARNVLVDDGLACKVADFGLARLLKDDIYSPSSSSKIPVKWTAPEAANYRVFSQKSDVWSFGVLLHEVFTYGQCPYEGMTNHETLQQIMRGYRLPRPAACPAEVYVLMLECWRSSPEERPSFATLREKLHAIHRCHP

STAT2 = biological target: T4, STAT2 (Homo sapiens, UniProt P52630); conditions: for percent of DMSO vehicle control at 10 µM / remaining activity at 10 µM: read-out: percent of DMSO vehicle control; for remaining activity at 10 µM: primary screen
T4 construct: made in house; host or cells: HEK293 (transient transfection), unpurified extract
T4 sequence (P52630 whole entry): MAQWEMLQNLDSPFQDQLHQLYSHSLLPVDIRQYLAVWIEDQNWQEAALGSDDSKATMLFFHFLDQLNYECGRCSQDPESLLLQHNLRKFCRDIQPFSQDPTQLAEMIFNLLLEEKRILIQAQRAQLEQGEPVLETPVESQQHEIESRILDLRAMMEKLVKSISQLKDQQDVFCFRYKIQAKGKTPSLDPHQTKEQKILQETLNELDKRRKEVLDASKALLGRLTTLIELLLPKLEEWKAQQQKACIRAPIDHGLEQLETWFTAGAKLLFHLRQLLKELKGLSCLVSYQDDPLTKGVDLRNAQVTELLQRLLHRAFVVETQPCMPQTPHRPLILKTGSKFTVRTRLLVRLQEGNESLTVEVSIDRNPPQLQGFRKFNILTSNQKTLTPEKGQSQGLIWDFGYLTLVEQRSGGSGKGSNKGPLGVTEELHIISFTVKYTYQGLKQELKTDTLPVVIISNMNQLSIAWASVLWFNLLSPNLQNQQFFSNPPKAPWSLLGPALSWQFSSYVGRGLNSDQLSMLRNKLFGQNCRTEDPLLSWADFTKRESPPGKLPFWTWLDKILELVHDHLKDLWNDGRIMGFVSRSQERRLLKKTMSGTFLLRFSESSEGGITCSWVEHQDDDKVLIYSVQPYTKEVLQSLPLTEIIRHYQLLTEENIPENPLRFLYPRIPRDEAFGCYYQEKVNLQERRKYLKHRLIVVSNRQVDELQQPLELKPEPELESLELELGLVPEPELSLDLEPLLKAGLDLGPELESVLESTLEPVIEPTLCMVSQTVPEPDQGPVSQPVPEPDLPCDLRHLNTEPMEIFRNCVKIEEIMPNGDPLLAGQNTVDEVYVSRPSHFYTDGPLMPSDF

SH2D1B = biological target: T5, SH2D1B (Homo sapiens, UniProt O14796); conditions: read-out: percent of DMSO vehicle control
T5 construct: made in house; host or cells: HEK293 (transient transfection), unpurified extract
T5 sequence (O14796 1-132): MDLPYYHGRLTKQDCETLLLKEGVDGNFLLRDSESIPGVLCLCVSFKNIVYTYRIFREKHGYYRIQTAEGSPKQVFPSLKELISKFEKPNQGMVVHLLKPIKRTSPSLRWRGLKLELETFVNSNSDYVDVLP

NCK2 = biological target: T6, NCK2 (Homo sapiens, UniProt O43639); conditions: read-out: percent of DMSO vehicle control
T6 construct: the DNA-tagged SH2 domain concentrations used in this study were <0.1 nM; made in house; host or cells: HEK293 (transient transfection, unpurified extract)
T6 sequence (O43639 285-380 limits assumed): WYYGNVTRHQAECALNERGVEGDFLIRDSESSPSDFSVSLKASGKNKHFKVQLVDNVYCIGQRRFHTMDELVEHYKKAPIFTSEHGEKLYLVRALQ

NCK1 = biological target: T7, NCK1 (Homo sapiens, UniProt P16333); conditions: for remaining activity at 10 µM: read-out: percent of DMSO vehicle control
T7 construct: the DNA-tagged SH2 domain concentrations used in this study were <0.1 nM; made in house; host or cells: HEK293 (transient transfection, unpurified extract)

PTPN6(SH2dom.N-term.) = biological target: T8, PTPN6(SH2dom.N-term.) (Homo sapiens, UniProt P29350); conditions: for remaining activity at 10 µM: read-out: percent of DMSO vehicle control
T8 construct: SH2dom.N-term. denotes SH2 domain closest to N-terminus of protein; made in house; host or cells: HEK293 (transient transfection, unpurified extract)
T8 sequence (P29350 4-100 limits assumed): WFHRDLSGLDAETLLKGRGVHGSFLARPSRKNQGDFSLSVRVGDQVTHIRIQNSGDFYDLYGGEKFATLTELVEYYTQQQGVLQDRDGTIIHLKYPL

SLP76 = biological target: T9, SLP76 (Homo sapiens, UniProt Q13094); conditions: read-out: percent of DMSO vehicle control
T9 construct: made in house; host or cells: HEK293 (transient transfection), unpurified extract
T9 sequence (Q13094 1-533): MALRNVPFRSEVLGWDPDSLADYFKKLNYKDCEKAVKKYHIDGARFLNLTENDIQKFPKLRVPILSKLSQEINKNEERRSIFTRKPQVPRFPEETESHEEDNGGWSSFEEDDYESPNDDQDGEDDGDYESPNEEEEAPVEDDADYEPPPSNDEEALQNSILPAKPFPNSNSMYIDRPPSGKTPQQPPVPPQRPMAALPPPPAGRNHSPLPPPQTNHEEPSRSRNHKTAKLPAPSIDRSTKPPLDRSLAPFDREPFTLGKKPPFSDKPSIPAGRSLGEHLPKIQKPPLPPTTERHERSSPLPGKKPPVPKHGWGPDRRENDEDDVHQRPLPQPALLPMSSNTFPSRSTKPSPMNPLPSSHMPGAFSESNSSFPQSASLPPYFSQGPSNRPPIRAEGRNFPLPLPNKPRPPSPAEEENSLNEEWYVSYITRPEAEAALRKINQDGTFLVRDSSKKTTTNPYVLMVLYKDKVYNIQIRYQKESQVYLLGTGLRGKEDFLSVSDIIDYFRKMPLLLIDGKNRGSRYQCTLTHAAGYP

PTPN6(SH2dom.C-term.) = biological target: T10, PTPN6(SH2dom.C-term.) (Homo sapiens, UniProt P29350); conditions: read-out: percent of DMSO vehicle control
T10 construct: SH2dom.C-term. denotes SH2 domain closest to C-terminus of protein; made in house; host or cells: HEK293 (transient transfection, unpurified extract)
T10 sequence (P29350 110-213 limits assumed): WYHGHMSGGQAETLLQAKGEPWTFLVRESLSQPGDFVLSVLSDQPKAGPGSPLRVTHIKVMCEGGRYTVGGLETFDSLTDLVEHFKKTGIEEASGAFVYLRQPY

PIK3R2(SH2dom.C-term.) = biological target: T11, PIK3R2(SH2dom.C-term.) (Homo sapiens, UniProt O00459); conditions: for remaining activity at 10 µM: read-out: percent of DMSO vehicle control; for Kd: read-out: KD
T11 construct: SH2dom.C-term. denotes SH2 domain closest to C-terminus of protein; made in house; host or cells: HEK293 (transient transfection, unpurified extract)
T11 sequence (O00459 622-716 limits assumed): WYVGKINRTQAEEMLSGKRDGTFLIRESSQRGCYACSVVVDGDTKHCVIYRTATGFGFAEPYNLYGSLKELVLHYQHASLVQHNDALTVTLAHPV

STAP1 = biological target: T12, STAP1 (Homo sapiens, UniProt Q9ULZ2); conditions: read-out: percent of DMSO vehicle control
T12 construct: made in house; host or cells: HEK293 (transient transfection), unpurified extract
T12 sequence (Q9ULZ2 1-295): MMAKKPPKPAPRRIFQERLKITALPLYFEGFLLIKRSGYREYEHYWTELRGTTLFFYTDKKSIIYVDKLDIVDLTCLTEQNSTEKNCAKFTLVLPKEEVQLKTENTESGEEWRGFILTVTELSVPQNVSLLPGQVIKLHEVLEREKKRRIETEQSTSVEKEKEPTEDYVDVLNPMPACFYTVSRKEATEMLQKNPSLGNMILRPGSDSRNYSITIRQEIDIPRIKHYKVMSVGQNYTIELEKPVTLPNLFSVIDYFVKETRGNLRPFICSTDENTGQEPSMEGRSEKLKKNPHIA

Compound | remaining activity at 10 µM (YES) [%] | remaining activity at 10 µM (SLAP2) [%] | remaining activity at 10 µM (SRMS) [%] | percent of DMSO vehicle control at 10 µM (STAT2) [%] | remaining activity at 10 µM (SH2D1B) [%] | remaining activity at 10 µM (NCK2) [%] | remaining activity at 10 µM (NCK1) [%] | remaining activity at 10 µM (YES; primary screen, 10 μM) [%] | remaining activity at 10 µM (SLAP2; primary screen, 10 μM) [%] | KD (SRMS) | remaining activity at 10 µM (SRMS; primary screen, 10 μM) [%] | remaining activity at 10 µM (STAT2) [%] | remaining activity at 10 µM (SH2D1B; primary screen, 10 μM) [%] | remaining activity at 10 µM (NCK2; primary screen, 10 μM) [%] | remaining activity at 10 µM (NCK1; primary screen, 10 μM) [%] | remaining activity at 10 µM (PTPN6(SH2dom.N-term.); primary screen, 10 μM) [%] | remaining activity at 10 µM (SLP76; primary screen, 10 μM) [%] | remaining activity at 10 µM (PTPN6(SH2dom.C-term.); primary screen, 10 μM) [%] | remaining activity at 10 µM (PIK3R2(SH2dom.C-term.); primary screen, 10 μM) [%] | remaining activity at 10 µM (STAP1; primary screen, 10 μM) [%] | also measured
NC(=O)CC[C@H](NC(=O)[C@@H]1CC[C@@H]2CCN(C(=O)CCCCCC#Cc3cccc4c3CN(C3CCC(=O)NC3=O)C4=O)C[C@H](NC(=O)c3cc4cc(C(F)(F)P(=O)(O)O)ccc4[nH]3)C(=O)N21)C(=O)NC(c1ccccc1)c1ccccc1 (stereo partly shown) [SD-36] | 73.3 ± 11.9 | 95.7 ± 9.9 | 102 ± 1.9 | 0.1 ± 1.3 | 99.6 ± 1.3 | 80 ± 38.4 | 106 | – | – | – | – | – | – | – | – | – | – | – | – | – | Kd (STAT2; dose-response): 450 nM and 454 nM; remaining activity at 10 µM (PTPN6(SH2dom.N-term.)): 87.3 ± 4.7%; remaining activity at 10 µM (SLP76): 66.5 ± 0.8%; remaining activity at 10 µM (PTPN6(SH2dom.C-term.)): 108 ± 6.9%; KD (PIK3R2(SH2dom.C-term.); dose-response): No Hit; remaining activity at 10 µM (PIK3R2(SH2dom.C-term.)): 18.5 ± 3.9%; remaining activity at 10 µM (STAP1): 79.9 ± 5.8%
CC(=O)N1CC[C@H]2CC[C@@H](C(=O)N[C@@H](CCC(N)=O)C(=O)NC(c3ccccc3)c3ccccc3)N2C(=O)[C@@H](NC(=O)c2cc3cc(C(F)(F)P(=O)(O)O)ccc3[nH]2)C1 [SI-109] | 113 | 121 | 123 | 100 | 223 | 121 | 124 | – | – | – | – | – | – | – | – | – | – | – | – | – | Kd (STAT2): 1300 ± 1300 nM; remaining activity at 10 µM (PTPN6(SH2dom.N-term.)): 123%; remaining activity at 10 µM (SLP76): 61.9%; remaining activity at 10 µM (PTPN6(SH2dom.C-term.)): 119%; remaining activity at 10 µM (PIK3R2(SH2dom.C-term.)): 120%; remaining activity at 10 µM (STAP1): 104%
C/C(=C\C(=O)N[C@H](C(=O)N1CCC[C@H]1C(=O)N(c1ccccc1)c1ccc(I)cc1)C(C)(C)C)c1ccc(OP(=O)(O)O)cc1 [STAT6-IN-1] | – | – | – | – | – | – | – | 29.5 | 55.8 ± 2.8 | No Hit | 7.6 ± 0.5 | 35.1 ± 16.6 | 49.6 ± 1.2 | 66.2 ± 8.2 | 10.6 ± 2.6 | 69.7 | 50.8 ± 0.4 | 45.8 ± 7.8 | 0.2 ± 0.1 | 65.6 ± 5.1 | Kd (YES; dose-response, read-out: KD): 9200 ± 380 nM; KD (NCK1; dose-response): No Hit; Kd (PIK3R2(SH2dom.C-term.); dose-response): 1000 ± 78 nM
CC(C)(C)[C@H](NC(=O)/C=C/c1ccc(OP(=O)(O)O)cc1)C(=O)N1CCC[C@H]1C(=O)N(c1ccccc1)c1ccc(I)cc1 [STAT6-IN-3] | – | – | – | – | – | – | – | 37.7 ± 27.8 | 92.1 ± 16.6 | No Hit | 8.5 ± 53.2 | 60.3 ± 12.5 | 46 ± 22.7 | 102 ± 68.4 | 85.1 ± 10.2 | 77.4 ± 15.8 | 93.6 ± 30.3 | 136 ± 30.6 | 6.1 ± 1.6 | 76.9 ± 9.2 | Kd (STAT2; dose-response, read-out: KD): 510 ± 83 nM; Kd (PIK3R2(SH2dom.C-term.); dose-response): 490 ± 80 nM
O=C(COc1ccc2cc(C(=O)Nc3ccccc3)ccc2c1)NCc1ccc(OP(=O)(O)O)c(OP(=O)(O)O)c1 [Stafib-1] | – | – | – | – | – | – | – | 63.1 ± 24.3 | 90.4 ± 6.1 | No Hit | 8.9 ± 56.2 | 153 | 62.9 ± 9.5 | 91.4 ± 35.1 | 53.7 ± 39.3 | 27.8 ± 4.2 | 97.5 ± 31 | 179 | 84.2 ± 34.7 | 92 ± 6.8 | Kd (STAT2; dose-response, read-out: KD): 9300 ± 4300 nM; Kd (PTPN6(SH2dom.N-term.); dose-response, read-out: KD): 13000 nM
